Laboratory results published in patent publication US20120053144A1, “Cobalamin Taxane Bioconjugates For Treating Eye Disease” (Osiris Therapeutics, Inc., priority 2009, published 2012).

Tested on: choroidal neovascularization
Experiment: Choroidal neovascularization model (argon laser scarring, fluorescein leakage scoring)
Assay type: in vivo, rats
Conditions: rat eye, laser-induced, treated on day 0
Experimental: Groups of rats were neovascularized by argon laser scarring on an eye. At the same time (day 0), the eye was immediately treated with the cobalamin-paclitaxel bioconjugate (CT-101) prepared in accordance with Example 1. Two concentrations, one higher and one lower, were tested. The treatment regimen also included a vehicle and KENACORT® RETARD (4% triamcinolone acetonide), as a positive control. The treated eyes were evaluated for inhibition of neovascularization on days 7, 14 and 21 by infusing the eye with fluorescein and scoring the leakage from each spot. The leakage of fluorescein on the photographies of the angiograms from each spot were evaluated by two examiners using an HRA (Heidelberg's Retinal Angiograph) in a masked fashion and graded as follows:
Score 1: slightly stained;
Score 2: moderate stained;
Score 3: strongly stained.

B12-5′-OCONH(CH2)5CO-Phe-Lys-PABC-7-Taxol [CT-101]
inhibition of neovascularization (fluorescein leakage score) (Day 14, both concentrations (higher and lower)): measurable effect | inhibition of neovascularization (fluorescein leakage score) (effect over 7 days relative to vehicle and positive control): marked angiogenic effect relative to the vehicle over 7 days, and was comparable in effect to the positive control
